From patent US9353089B2, “Compositions and methods for the treatment of malaria” (Saint Louis University, priority 2013, dated 2016)
Read-outs that look alike come from different tables or passages of the source.

What was measured:
[1] = molecular target: recombinant human Cathepsin E (Homo sapiens (Human), UniProt P14091); test: Cathepsin E enzyme inhibition FRET assay; assay type: biochemical; details: Table 8; read-out: CatE IC50
Method: (§1) The enzymatic inhibition activity assays were determined using the fluorescence resonance energy transfer (FRET) assay. The assays were performed in a 384-well plate format. […] The concentration of Cathepsin D was 20 ng/μL, and 1 ng/μL of Cathepsin E was used. CatD and CatE were activated by incubation in assay buffer (0.1 M NaOAc, 0.2 M NaCl, pH 3.5) at room temperature for 30 min. Subsequently, the rhBACE-1 substrate (R&D Systems, catalog# ES004), the Cathepsin D and Cathepsin E substrate (R&D Systems, Catalog # ES001) were added accordingly to final concentration 20 μM to initiate the reaction. After 60 min incubation at room temperature, the time-resolved fluorescence at Ex/Em=360 nm/460 nm was measured on an EnVision multilabel plate reader (Perkin-Elmer). The analytical software, GraphPad Prism 5.0 (GraphPad Software, Inc., USA) was used to generate IC50 values via non-linear regression analysis, which are reported in Tables 8-13 below as BACE1 IC50 values.

[2] = test system: Plasmodium chabaudi ASS and ASCQ strains; test: In vivo antimalarial efficacy 4-day suppressive test; details: NIH mice, Day 4 postinoculation
Method: Briefly, NIH mice (n=8 per group) were inoculated i.p. with 2×10^7 parasitized (Plasmodium chabaudi ASS or ASCQ) red blood cells. […] Groups (n=6) including a vehicle control and chloroquine (CQ) as a reference drug were included. Parasitemia levels were determined on the day following the last treatment (Day 4).

[3] = molecular target: Plasmepsin (PM-4; Plm IV) (Plasmodium falciparum (isolate 3D7), UniProt Q8IM16); test: Plasmepsin-4 enzyme inhibition assay; assay type: biochemical; details: Table 8
Outline: (§2)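 Enzymes activated in pH 4.5 citrate/DTT buffer, then assayed in 50 mM sodium acetate pH 4.7, 0.01% Tween-20. Compounds added before fluorogenic peptide substrate (final 20 µM); 60 min at room temperature, fluorescence Ex/Em 360/535 nm, IC50 by curve fit.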

[4] = molecular target: Plasmepsin-2 (PM-2; Plm II) (Plasmodium falciparum (isolate HB3), UniProt P46925); test: Plasmepsin-2 enzyme inhibition assay; assay type: biochemical
Outline: as §2

[5] = Human Plasma Protein Binding (hPPB) assay; assay type: in vitro ADME; details: rapid equilibrium dialysis
Method: Human Plasma Protein Binding (hPPB) of test compounds was measured by rapid equilibrium dialysis device using the RED Device Inserts. In the reaction of 5 h, the drug concentration of the sample chamber and buffer chamber can be determined, through which we can calculated hPPB of test compounds. RED Device Inserts and Single-Use RED Base Plate were purchased from the Linden Bioscience, Woburn, Mass. (Taiwan, Thermo scientific). […]. Pooled human plasma from healthy individuals in this study was obtained from the Southern Medical University (China) and was stored frozen at −20° C. until use. SHZ-88A Reciprocating thermostatic oscillator was purchased from Taicang City Experimental Equipment Co. (China). Chlorpromazine (>99% in purity, positive control) and Phenacetin (>99% in purity, internal standard, IS) were all purchased from the Sigma Chemical Co. (China). Chlorpromazine HCl was used as a positive control. An aliquot ([…]) of plasma was accurately added into the sample chamber, and 6 μL compounds solution (500 μM, 50% DMSO) was added (n=3). An aliquot (500 μL) of Dulbecco solution was added into the buffer chamber. These solution were all oscillated for 5 hours (37° C., 90 rpm). Then, 50 μL solution in sample chamber was removed, 50 μL Dulbecco solution was added, and mixed. Also, 50 μL solution in buffer chamber was removed, 50 μL plasma was added, and mixed. 200 μL ACN (including internal Standard, 100 ng/mL) were added separately, oscillated, mixed, and centrifuged (20 min, 15000 g). An aliquot (50 μL) of the supernatant was accurately transferred to a clean 1.5 mL test tube and 100 μL H2O was added, mixed. 10 μL of mixture was separately injected into LC-MS system for determination of the drug concentration in the sample chamber and buffer chamber. The data were analyzed using the following equation: % hPPB=[1−(Concentrationbuffer chamber/Concentrationplasma chamber)]*100% (Barre, et al., 1985, which is incorporated herein by reference).

[6] = molecular target: recombinant human Cathepsin D (Homo sapiens (Human), UniProt P07339); test: Cathepsin D enzyme inhibition FRET assay; assay type: biochemical; details: Table 8; read-out: CatD IC50
Method: as §1

[7] = test system: Plasmodium falciparum Dd2 (multi-drug resistant); test: In vitro antimalarial assay (malaria SYBR Green I-based fluorescence, MSF), Dd2; assay type: cell-based
Method: In vitro antimalarial activity was determined by a malaria SYBR Green I-based fluorescence (MSF) method described previously by Smilkstein et al. (2004, which is incorporated herein by reference) with slight modification (Winter, et al., 2006, which is incorporated herein by reference). Stock solutions of each test drug were prepared in DMSO at a concentration of 20 mM. The drug solutions were serially diluted with culture medium and distributed to asynchronous parasite cultures on 96-well plates in quadruplicate in a total volume of 100 μL to achieve 0.5% parasitemia with a 2% hematocrit in a total volume of 100 pt. The plates were then incubated for 72 h at 37° C. After incubation, 100 μL of lysis buffer with 0.2 μL/mL SYBR Green I was added to each well. The plates were incubated at 37° C. for an hour in the dark and then placed in a 96-well fluorescence plate reader (Spectramax Gemini-EM; Molecular Diagnostics) with excitation and emission wavelengths at 497 nm and 520 nm, respectively, for measurement of fluorescence.
Antimalarial potency of compounds was determined by this technique for both Plasmodium falciparum 3D7 (CQ-sensitive) and Dd2 (multi-drug resistant) strains.

[8] = 100 mpk orally once daily for four days
[9] = DD2, 72 h, read-out: Pf Dd2 IC50 (μM, 72 hr)

recombinant human Cathepsin E, sequence (P14091 54-396): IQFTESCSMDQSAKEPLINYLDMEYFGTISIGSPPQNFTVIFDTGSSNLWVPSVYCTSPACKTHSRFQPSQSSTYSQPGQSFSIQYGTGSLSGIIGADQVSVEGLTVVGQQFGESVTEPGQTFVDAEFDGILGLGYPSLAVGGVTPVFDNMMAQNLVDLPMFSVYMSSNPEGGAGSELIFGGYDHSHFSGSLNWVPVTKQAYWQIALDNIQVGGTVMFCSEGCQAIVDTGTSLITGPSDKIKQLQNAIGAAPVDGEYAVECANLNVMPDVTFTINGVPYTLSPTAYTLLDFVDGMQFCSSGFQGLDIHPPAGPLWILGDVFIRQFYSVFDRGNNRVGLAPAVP
Plasmepsin-2 (PM-2; Plm II), sequence (P46925 125-453 limits assumed): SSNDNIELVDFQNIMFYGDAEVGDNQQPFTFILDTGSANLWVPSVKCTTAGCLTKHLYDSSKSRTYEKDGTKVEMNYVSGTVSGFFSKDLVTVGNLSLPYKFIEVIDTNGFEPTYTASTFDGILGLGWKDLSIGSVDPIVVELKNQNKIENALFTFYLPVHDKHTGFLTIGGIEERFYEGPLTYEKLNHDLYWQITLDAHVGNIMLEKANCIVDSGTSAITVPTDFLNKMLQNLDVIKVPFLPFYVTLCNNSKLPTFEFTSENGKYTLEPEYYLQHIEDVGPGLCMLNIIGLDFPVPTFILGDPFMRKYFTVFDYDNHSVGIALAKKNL
Plasmepsin (PM-4; Plm IV), sequence (Q8IM16 122-449 limits assumed): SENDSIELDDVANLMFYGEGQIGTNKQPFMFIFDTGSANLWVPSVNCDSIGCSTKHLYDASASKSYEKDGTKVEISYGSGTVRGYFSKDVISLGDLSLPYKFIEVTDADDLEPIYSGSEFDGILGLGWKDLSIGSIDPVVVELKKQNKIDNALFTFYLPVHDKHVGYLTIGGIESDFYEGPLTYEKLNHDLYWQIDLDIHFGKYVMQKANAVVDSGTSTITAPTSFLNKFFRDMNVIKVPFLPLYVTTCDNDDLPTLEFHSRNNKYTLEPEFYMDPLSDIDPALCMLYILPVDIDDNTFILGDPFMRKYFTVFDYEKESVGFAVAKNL
recombinant human Cathepsin D, sequence (P07339 65-412): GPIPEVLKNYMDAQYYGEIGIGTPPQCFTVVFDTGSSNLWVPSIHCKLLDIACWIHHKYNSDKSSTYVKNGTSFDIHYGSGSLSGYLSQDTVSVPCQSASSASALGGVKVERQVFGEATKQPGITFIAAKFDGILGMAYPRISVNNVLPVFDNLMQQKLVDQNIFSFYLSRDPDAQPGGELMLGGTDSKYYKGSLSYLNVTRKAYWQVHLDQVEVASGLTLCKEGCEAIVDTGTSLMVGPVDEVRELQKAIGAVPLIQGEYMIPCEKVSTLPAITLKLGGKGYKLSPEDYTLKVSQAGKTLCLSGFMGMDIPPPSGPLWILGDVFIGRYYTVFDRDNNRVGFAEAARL

SMILES	IC50 [1]	% Inhibition of parasitemia [2, 8]	IC50 [3]	IC50 ([4]; Table 8, read-out: PM-II IC50)	IC50 ([4]; Table 13, read-out: PM-2 IC50)	hPPB (%) [5]	IC50 [6]	IC50 [7, 9]	IC50 ([7]; DD2, read-out: Dd2 IC50 (μM))	% Inhibition of parasitemia ([2]; 110 mpk orally once daily for four days)
COc1ccc(C2(c3ccc(OC)cc3)NC(=N)N(CC3CCOCC3)C2=O)cc1 [Example 275, 2-imino-5,5-bis(4-methoxyphenyl)-3-(oxan-4-ylmethyl)imidazolidin-4-one]	841 nM	41%	59 nM	17 nM	16.9 nM	88.7%	934 nM	0.442 µM	0.442 µM	–
COc1ccc(C2(c3ccc(OC)cc3)NC(=N)N(C3CCOCC3)C2=O)cc1 [Example 176, 2-imino-5,5-bis(4-methoxyphenyl)-3-(oxan-4-yl)-imidazolidin-4-one]	511 nM	–	18 nM	7 nM	6.81 nM	78.1%	> 10000 nM	0.526 µM	0.526 µM	63%
COc1ccc(C2(c3ccc(OC)cc3)NC(=N)N(C3CCN(C(=O)OC(C)(C)C)CC3)C2=O)cc1 [Example 206, tert-butyl 4-[2-imino-4,4-bis(4-methoxyphenyl)-5-oxoimidazolidin-1-yl]piperidine-1-carboxylate]	233 nM	73%	10 nM	2 nM	2.76 nM	99.7%	520 nM	0.367 µM	–	–
